# According to patent publication US10226460B2, “Pharmaceutically acceptable salts of pirlindole enantiomers for use in medicine” (TECNIMEDE SOCIEDADE TECNICO-MEDICINAL S.A., priority 2014, dated 2019):
# Assay: Solubility test, classical saturation shake-flask method in 0.1N HCl
# Assay type: physicochemical
# Description: The Solubility test performed for showing the present invention's advantages is well known in the state of the art and is based on the “Classical saturation shake-flask method”, which comprises: Agitation at 37° C. during 15 h of supersaturated solution of the solid in HCl (aq) 0.1N, followed by filtration, dilution with water and quantification by UV measurement at 267 nm wavelength.
smiles,measurement,value
"Cc1ccc2c(c1)c1c3n2CCNC3CCC1.Cl (racemic) [(rac)-pirlindole•HCl, 2,3,3a,4,5,6-hexahydro-1H-8-methyl-pyrazine [3,2,1-j,k]carbazole]",Solubility category in 0.1 N HCl,slightly soluble
